# Laboratory results as given in patent US9168329B2, “Beta-peptides with antifungal activity” (Wisconsin Alumni Research Foundation, priority 2006, dated 2015).
# Like-named read-outs stand apart in the source and are kept apart here. Square brackets hold non-standard residues; d marks the D form. Ends that are not written are not given here. Peptide text beside a SMILES is read from it.
# Tests used:
# [1] = tested on: Candida albicans (SC5314, ATCC 24433, ATCC 90028); assay type: cell-based; details: for MIC: SC5314
# Procedure: Minimum inhibitory concentration assay. Minimum inhibitory concentrations (MIC) for the β-peptides were determined using the broth microdilution assay described by the Committee for Clinical and Laboratory Standards (formerly known as the National Committee for Clinical Laboratory Standards) (National Committee for Clinical Laboratory Standards Reference method for broth dilution antifungal susceptibility testing of yeasts: approved standard—second edition; NCCLS document M27-A2; NCCLS: Wayne, Pa., 2002). Three strains of Candida albicans were used: SC5314, ATCC 24433, and ATCC 90028. Cells were grown for 24 hours on Sabouraud dextrose agar at 30° C. After 24 hours of growth, the cells were suspended in 0.145 M saline, and the concentration was adjusted to between 1×10^6 cells/mL and 5×10^6 cells/mL in saline. The working suspension was obtained by diluting the suspension 1:1000 in RPMI 1640 (with L-glutamine and without sodium bicarbonate, Invitrogen) buffered with 0.145 mol/L 3-(N-morpholino) propanesulfonic acid (MOPS).
# Twofold serial dilutions of stock solutions of α- or β-peptides or amphotericin B (Calbiochem, solubilized in dimethyl sulfoxide) were made in RPMI 1640, and 100 μL aliquots were put into 96-well plates (Falcon). An equal volume of the cell suspension was added to the wells for a total volume of 200 μL. Growth controls and sterility controls were included.
# Plates were incubated at 35° C. for 48 h and then visually inspected for fungal growth. […] Experiments were performed in duplicate and repeated on at least two different days.
# [2] = tested on: human red blood cells (hRBC); assay: Hemolysis assay; assay type: cell-based
# Procedure: Hemolysis assay. The hemolysis assay was performed using human red blood cells (hRBC) as described previously (Raguse, et al. J. Am. Chem. Soc. 2002, 124, 12774-12785; Porter, et al. J. Am. Chem. Soc. 2005, 127, 11516-11529). The hRBC were washed three times in TRIS-buffered saline (TBS; 10 mM TRIS, 150 mM NaCl, pH 7.2) and then diluted to a concentration of 1% (v/v) in TBS. The hRBC suspension (80 μL) was added to twofold dilutions of peptides in TBS (20 μL) in a 96-well plate (Falcon). Wells containing hRBC treated with 20 μL TBS provided a negative control, and wells with high concentrations of the peptide melittin (Sigma) served as a positive control. After incubating at 37° C. for 1 h, plates were centrifuged, and 50 μL of the supernatant was diluted with 50 μL of water in a fresh 96-well plate. The absorbance of the diluted supernatant was measured at 405 nm, and the percent hemolysis for each well was calculated from
# [formula] where A405^peptide is the absorbance for the supernatant of hRBC treated with peptide, A405^buffer is the absorbance for the supernatant of hRBC in TBS, and A405^completlysis is the average absorbance for the supernatant of cells treated with melittin at concentrations of 50-400 μg/mL. Experiments were performed in duplicate on at least two different days. Biofilm Antifungal Susceptibility Testing
# [3] = pH 7, physiological ionic strength
# [4] = average over three C. albicans strains, pH 7, physiological ionic strength, Table 1 prints no unit
Compound,"Average MIC ([1]; SC5314, pH 7) [µg/mL]",% Hemolysis at MIC [2] [%],"antifungal activity in the planktonic NCCLS assay (in words) [1, 3]",further results
"NCCCC[C@@H](CC(N)=O)NC(=O)[C@H]1CCCC[C@@H]1NC(=O)[C@H]1CCCC[C@@H]1NC(=O)C[C@H](CCCCN)NC(=O)[C@H]1CCCC[C@@H]1NC(=O)[C@H]1CCCC[C@@H]1NC(=O)C[C@H](CCCCN)NC(=O)[C@H]1CCCC[C@@H]1NC(=O)[C@H]1CCCC[C@@H]1NC(=O)C[C@@H](N)Cc1ccc(O)cc1 [β-peptide 5, β^3Tyr-(ACHC-ACHC-β^3Lys)3]",21,7,,MIC [1]: 16 µg/mL
β^3Tyr-(ACHC-β^3Val-β^3Arg)3,,,showed activity in the planktonic assay,
"CC(C)[C@@H](CC(=O)N[C@H]1CCCC[C@@H]1C(=O)N[C@@H](CCCCN)CC(=O)N[C@H](CC(=O)N[C@H]1CCCC[C@@H]1C(=O)N[C@H]1CCCC[C@@H]1C(=O)N[C@@H](CCCCN)CC(N)=O)C(C)C)NC(=O)C[C@@H](NC(=O)C[C@@H](N)CCCCN)C(C)C [β-peptide 7, β^3Lys-β^3Val-β^3Val-ACHC-β^3Lys-β^3Val-ACHC-ACHC-β^3Lys]",,,lack of antifungal activity,
C9-β^3Tyr-(ACHC-ACHC-β^3Lys)3,,,,"Average MIC [1, 4]: 16 µg/mL"
"CC(C)[C@@H](CC(=O)N[C@@H](CCCCN)CC(=O)N[C@H](CC(=O)N[C@H](CC(=O)N[C@@H](CCCCN)CC(=O)N[C@H](CC(=O)N[C@H](CC(=O)N[C@@H](CCCCN)CC(N)=O)C(C)C)C(C)C)C(C)C)C(C)C)NC(=O)C[C@@H](NC(=O)C[C@@H](N)Cc1ccc(O)cc1)C(C)C [β-peptide 4, β^3Tyr-(β^3Val-β^3Val-β^3Lys)3]",69,9,,"antifungal activity in the planktonic NCCLS assay (in words) ([1]; pH 7, physiological ionic strength, listed as 4): substantially weaker antifungal activity; antifungal activity in the planktonic NCCLS assay (in words) ([1]; pH 7, physiological ionic strength, listed as β^3Tyr-(β^3Val-β^3Val-β^3Lys)3): showed activity in the planktonic assay"
"CC[C@H](C)[C@H](NC(=O)CN)C(=O)NCC(=O)N[C@@H](CCCCN)C(=O)N[C@@H](Cc1ccccc1)C(=O)N[C@@H](CC(C)C)C(=O)N[C@@H](Cc1c[nH]cn1)C(=O)N[C@@H](C)C(=O)N[C@@H](C)C(=O)N[C@@H](CCCCN)C(=O)N[C@@H](CCCCN)C(=O)N[C@@H](Cc1ccccc1)C(=O)N[C@@H](C)C(=O)N[C@@H](CCCCN)C(=O)N[C@@H](C)C(=O)N[C@@H](Cc1ccccc1)C(=O)N[C@H](C(=O)N[C@@H](C)C(=O)N[C@@H](CCC(=O)O)C(=O)N[C@H](C(=O)N[C@@H](CCSC)C(=O)N[C@@H](CC(N)=O)C(=O)N[C@@H](CO)C(N)=O)[C@@H](C)CC)C(C)C [L-Magainin 2 derivative, reference compound] (H-GIGKFLHAAKKFAKAFVAEIMNS-NH2; N-terminus assumed)",>128,48,neither cecropin B nor a magainin derivative displays any activity,
"NCCCC[C@H](CC(N)=O)NC(=O)C[C@@H](Cc1ccccc1)NC(=O)[C@@H]1CCCC[C@H]1NC(=O)C[C@@H](CCCCN)NC(=O)C[C@@H](Cc1ccccc1)NC(=O)[C@@H]1CCCC[C@H]1NC(=O)C[C@@H](CCCCN)NC(=O)C[C@@H](Cc1ccccc1)NC(=O)[C@@H]1CCCC[C@H]1NC(=O)C[C@H](N)Cc1ccc(O)cc1 [(R)β^3Tyr-[(R,R)ACHC—(R)β^3Phe-(R)β^3Lys]3]",,,,MIC [1]: 8 µg/mL
"CC(C)[C@@H](CC(=O)N[C@@H](CCCCN)CC(N)=O)NC(=O)[C@H]1CCCC[C@@H]1NC(=O)C[C@H](CCCCN)NC(=O)C[C@@H](NC(=O)[C@H]1CCCC[C@@H]1NC(=O)C[C@H](CCCCN)NC(=O)C[C@@H](NC(=O)[C@H]1CCCC[C@@H]1N)C(C)C)C(C)C [β-peptide 6, (ACHC-β^3Val-β^3Lys)3]",,,,"Average MIC [1, 4]: 17 µg/mL; antifungal activity in the planktonic NCCLS assay (in words) ([1]; pH 7, physiological ionic strength, listed as 6): average MIC is indistinguishable relative to β^3Tyr-containing variant (1); antifungal activity in the planktonic NCCLS assay (in words) ([1]; pH 7, physiological ionic strength, listed as (ACHC-β^3Val-β^3Lys)3): showed activity in the planktonic assay; % Hemolysis at MIC ([2]; human red blood cells, at the average MIC): 5%"
CC(C)C[C@@H](CC(=O)N[C@H]1CCCC[C@@H]1C(=O)N[C@@H](CCCCN)CC(N)=O)NC(=O)C[C@H](CCCCN)NC(=O)[C@H]1CCCC[C@@H]1NC(=O)C[C@H](CC(C)C)NC(=O)C[C@H](CCCCN)NC(=O)[C@H]1CCCC[C@@H]1NC(=O)C[C@H](CC(C)C)NC(=O)C[C@@H](N)Cc1ccc(O)cc1 [β^3Tyr-(β^3Leu-ACHC-β^3Lys)3],,,,MIC [1]: 16 µg/mL
"CC[C@@H](C)[C@@H](NC(=O)CN)C(=O)NCC(=O)N[C@H](CCCCN)C(=O)N[C@H](Cc1ccccc1)C(=O)N[C@H](CC(C)C)C(=O)N[C@H](Cc1c[nH]cn1)C(=O)N[C@H](C)C(=O)N[C@H](C)C(=O)N[C@H](CCCCN)C(=O)N[C@H](CCCCN)C(=O)N[C@H](Cc1ccccc1)C(=O)N[C@H](C)C(=O)N[C@H](CCCCN)C(=O)N[C@H](C)C(=O)N[C@H](Cc1ccccc1)C(=O)N[C@@H](C(=O)N[C@H](C)C(=O)N[C@H](CCC(=O)O)C(=O)N[C@@H](C(=O)N[C@H](CCSC)C(=O)N[C@H](CC(N)=O)C(=O)N[C@H](CO)C(N)=O)[C@H](C)CC)C(C)C [D-Magainin 2 derivative, reference compound] (H-G[dI]G[dK][dF][dL][dH][dA][dA][dK][dK][dF][dA][dK][dA][dF][dV][dA][dE][dI][dM][dN][dS]-NH2; N-terminus assumed)",>128,48,inactive,
"cecropin B (KWKVFKKIEKMGRNIRNGIVKAGPAIAVLGEAKAL; ends and bridges not checked; UniProt P01508 27-61, looked up) [amphiphilic host-defense α-peptide, reference compound]",,,neither cecropin B nor a magainin derivative displays any activity,
"CC(C)C[C@@H](CC(=O)N[C@@H](CCCCN)CC(=O)N[C@H]1CCCC[C@@H]1C(=O)N[C@H](CC(=O)N[C@@H](CCCCN)CC(=O)N[C@H]1CCCC[C@@H]1C(=O)N[C@H](CC(=O)N[C@@H](CCCCN)CC(N)=O)CC(C)C)CC(C)C)NC(=O)[C@H]1CCCC[C@@H]1NC(=O)C[C@@H](N)Cc1ccc(O)cc1 [β-peptide 2, β^3Tyr-(ACHC-β^3Leu-β^3Lys)3]",11,73,,
"NCCCC[C@@H](CC(N)=O)NC(=O)C[C@H](Cc1ccccc1)NC(=O)[C@H]1CCCC[C@@H]1NC(=O)C[C@H](CCCCN)NC(=O)C[C@H](Cc1ccccc1)NC(=O)[C@H]1CCCC[C@@H]1NC(=O)C[C@H](CCCCN)NC(=O)C[C@H](Cc1ccccc1)NC(=O)[C@H]1CCCC[C@@H]1NC(=O)C[C@@H](N)Cc1ccc(O)cc1 [β-peptide 3, β^3Tyr-(ACHC-β^3Phe-β^3Lys)3]",8,80,,
